We go through four compounds from article PMC1977344 (British Journal of Cancer, 1992).

For data set [1] the following is noted: cited from earlier work.
Data set [2] has as its target T1, mu 2 receptor (Rattus norvegicus, UniProt P33535). To be noted: for fold lower affinity of M6G than morphine at the mu 2 receptor (IC50 ratio): from mean IC50s; for specific binding of the 3H-ligand remaining, mu 2 assay: test substance at 5 µM (5 pM in methods).
A further data set addresses mu 1 receptor (Rattus norvegicus, UniProt P33535). As to the kind of experiment: Radioligand binding, mu 1 assay (3H-DSLET displacement with DPDPE block, rat brain P2 homogenate). Further details: species or system Wistar rats.
The next data set deals with kappa receptor. Further details: method as in Pasternak et al., 1987. To be noted: not yet accurately determined; ref Pasternak et al., 1987; cited from earlier work.
For data set [3] the following is noted: normal volunteers; ref Thompson et al., 1990; cited from earlier work.
Data set [4] concerns the target T2, total mu (mu 1 and mu 2) receptor (Rattus norvegicus, UniProt P33535).
T2 construct: from tissue
As to the kind of experiment: Radioligand binding, total mu assay (3H-DAGO displacement, rat brain P2 homogenate). On the set-up: species or system Wistar rats; specific binding of the 3H-ligand remaining, total mu assay: dose or concentration left out as unconfirmed.

Data set [5] has as its target T3, delta receptor (Rattus norvegicus, UniProt P33533).
T3 construct: from tissue
As to the kind of experiment: Radioligand binding, delta assay (3H-DSLET displacement with DAGO block, rat brain P2 homogenate). On the set-up: species or system Wistar rats.

The conditions of data set [6]: open study in man; ref Osborne et al., 1989; cited from earlier work.
For data set [7], the target named is T1, mu 2 receptor. Description: biochemical. The note with it: IC50 mu 2 receptor.
For data set [8], the system named is delta receptor. Further details: method as in Oguri et al. (1987). To be noted: 3H-leucine enkephalin; ref Oguri et al. (1987); cited from earlier work.
The conditions of data set [9]: ref Shimomum et al. (1971); cited from earlier work.
Where [10] appears, read: test substance at 5 µM (5 pM in methods).

Like-named read-outs stand apart in the source and are kept apart here.

T2 sequence (P33535 whole entry): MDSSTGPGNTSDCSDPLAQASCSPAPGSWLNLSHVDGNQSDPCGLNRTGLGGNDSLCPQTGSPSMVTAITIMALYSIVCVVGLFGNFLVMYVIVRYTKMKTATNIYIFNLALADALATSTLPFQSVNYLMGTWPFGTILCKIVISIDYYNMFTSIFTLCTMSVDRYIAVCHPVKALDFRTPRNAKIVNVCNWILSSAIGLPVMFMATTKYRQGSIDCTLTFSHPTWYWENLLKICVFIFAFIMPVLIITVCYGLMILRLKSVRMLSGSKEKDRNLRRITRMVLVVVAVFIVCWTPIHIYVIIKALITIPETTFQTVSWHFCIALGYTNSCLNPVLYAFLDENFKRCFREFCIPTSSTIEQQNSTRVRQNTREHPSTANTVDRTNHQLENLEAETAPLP
T1 sequence (P33535 whole entry): as above
Sequence of mu 1 receptor (P33535 whole entry): as above
T3 sequence (P33533 whole entry): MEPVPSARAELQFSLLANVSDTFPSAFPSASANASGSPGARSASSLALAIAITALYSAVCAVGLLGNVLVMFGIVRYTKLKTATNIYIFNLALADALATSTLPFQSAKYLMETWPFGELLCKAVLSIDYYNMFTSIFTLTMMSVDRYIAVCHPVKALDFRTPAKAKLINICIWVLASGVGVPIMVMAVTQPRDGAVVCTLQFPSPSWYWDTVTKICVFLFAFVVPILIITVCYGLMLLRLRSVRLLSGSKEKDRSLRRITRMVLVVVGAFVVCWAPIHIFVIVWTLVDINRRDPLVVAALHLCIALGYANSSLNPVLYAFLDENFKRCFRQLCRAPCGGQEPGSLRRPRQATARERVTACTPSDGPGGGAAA

Regarding `CN1CC[C@]23c4c5ccc(O[C@@H]6O[C@H](C(=O)O)[C@@H](O)[C@H](O)[C@H]6O)c4O[C@H]2[C@@H](O)C=C[C@H]3[C@H]1C5` [M3G, morphine 3-glucuronide], the analgesic activity result in data set [1] (ref Osborne et al., 1986, Hanks et al., 1987, Hoskin & Hanks, 1990) is listed as “devoid of analgesic activity”.

For the compound `CN1CC[C@]23c4c5ccc(O)c4O[C@H]2[C@@H](O[C@@H]2O[C@H](C(=O)O)[C@@H](O)[C@H](O)[C@H]2O)C=C[C@H]3[C@H]1C5` [M6G, morphine 6-glucuronide], the entries for the “fold lower affinity of M6G than morphine at the mu 2 receptor (IC50 ratio)” value at mu 2 receptor [2] and at mu 2 receptor [2] (listed as Morphine 6-glucuronide) were 4.8 fold and 4 fold, respectively. The IC50 worked out at 170 nM on mu 1 receptor (read-out: IC50 mu 1 receptor, whole brain preparations, P2 fraction of whole rat brain homogenate, single assay); 80 nM in [4]; 75 nM at delta receptor [5]; 82 nM on mu 2 receptor [7] (brain minus hypothalami, P2 fraction, 3H-DAGO 1.5 nM, DSLET 5 nM block, mean ± SEM); 66 nM on mu 2 receptor [7] (whole brain preparations, P2 fraction of whole rat brain homogenate, single assay). Also, in the data set with kappa receptor, the “affinity for the kappa receptor” value is reported as “thought to be low”. The “nausea and sedation versus morphine” value in data set [3] was “less nausea and no sedation”. For the same compound, the “respiratory depression versus equipotent dose of morphine” value in [3] was “significantly less respiratory depression”. Also, the “systemic analgesic potency advantage over morphine” value in data set [1] (systemic, ref Shimomura et al., 1971, Abbott & Palmour, 1988) is given as 3 fold. Besides, the “nausea or sedation at doses sufficient to give significant pain relief” value in data set [6] is given as “no nausea or sedation was seen”. In addition, in the data set on delta receptor [8], the “affinity for the delta receptor relative to morphine” value is given as “slightly higher affinity”. Further, in [9], the “systemic LD50 relative to that of morphine” value was 88%.

On to `CN1CC[C@@]23CCCC[C@@H]2[C@@H]1Cc1ccc(O)cc13` [dextrorphan], for which the “specific binding of the 3H-ligand remaining, mu 2 assay” value on mu 2 receptor [2] is 72%. On mu 1 receptor (setting [10]), the “specific binding of the 3H-ligand remaining, mu 1 assay” value is reported as “no inhibition was observed”. Besides, the “specific binding of the 3H-ligand remaining, total mu assay” value in data set [4] is on record as 70%. The “specific binding of the 3H-ligand remaining, delta assay” value at delta receptor [5] (setting [10]) was “no inhibition was observed”.

With `CN1CC[C@]23CCCC[C@H]2[C@H]1Cc1ccc(O)cc13` [levorphanol], the “specific binding of the 3H-ligand remaining, mu 2 assay” value at mu 2 receptor [2] is listed as 28%. The “specific binding of the 3H-ligand remaining, mu 1 assay” value at mu 1 receptor is given as 1%. In addition, the “specific binding of the 3H-ligand remaining, total mu assay” value in data set [4] amounted to 0%. Further, at delta receptor [5], the “specific binding of the 3H-ligand remaining, delta assay” value was 0%.
